Data as given in US20060165827A1, “Anti diarrhoea compositions” (Loders Croklaan USA LLC, priority 2002, published 2006).

Key:
growing piglets = experiment: Growth, food intake and food conversion of weaned piglets on supplemented feed; assay type: in vivo, pig
Source text: (§1) Evaluate the effect of supplementation with shea sterols on growth and post-weaning diarrhoea of growing piglets.
(§2) One day before the start of the experiment the pigs are weighed. The piglets are distributed over the different treatment groups with the aim to establish group equality in weight, sex. Piglets smaller than 5 kg or piglets with physical disturbances are excluded from the study.
(§3) At a mean age of 27 days the pigs are weaned and randomly assigned to the 3 experimental groups and are then treated for 35 days. Pigs are fed ad libitum. The first 14 days post weaning the pigs are fed a prestarter diet. Subsequently, the piglets are changed in a period of 3 days to a starter diet. Throughout the 35 day study period the food is supplemented with either:
(§4) 1. without antimicrobial growth enhancers
(§5) 2. with antimicrobial growth enhancers (AMGB: 40 ppm avilamycine)
(§6) 3. with shea oleine (0.4%)
(§7) The shea oleine contained 8 wt % sterols and pentacyclic terpenes. The shea oleine was obtained by fractionation of the extract from shea nuts into a stearine and oleine fraction, followed by partial bleaching and deodorising.
Piglets were weighed at the start of the experiment, at 14 days and at day 34.

[1] = system: post-weaning diarrhoea of growing piglets; experiment: Incidence of post-weaning diarrhoea in weaned piglets on supplemented feed; assay type: in vivo, pig
Source text: as §1, §2, §3, §4, §5, §6, §7

[2] = from weaning till 14 days post weaning
[3] = from weaning till 14 days post weaning, p < 0.001

Question: Which results are given for avilamycine [AMGB]?
Answer: EW-conversion (growing piglets; from day 1 till day 34): 1.64; EW-intake per day (growing piglets; from day 1 till day 34): 0.57; food conversion (growing piglets; from day 1 till day 34): 1.49; food intake (growing piglets; from day 1 till day 34): 0.52 kg/day; growth rate (growing piglets; from day 1 till day 34): 352 g/day; weight (growing piglets; from day 1 till day 34): 20.9 kg; EW-conversion (growing piglets; from day 15 till day 34): 1.70; EW-intake per day (growing piglets; from day 15 till day 34): 0.79; food conversion (growing piglets; from day 15 till day 34): 1.55; food intake (growing piglets; from day 15 till day 34): 0.72 kg/day; growth rate (growing piglets; from day 15 till day 34): 468 g/day; weight (growing piglets; from day 15 till day 34): 10.5 kg; EW-conversion (growing piglets; [2]): 1.43; food conversion (growing piglets; [2]): 1.28; growth rate (growing piglets; [2]): 185 g/day; EW-intake per day (growing piglets; [3]): 0.26; food intake (growing piglets; [3]): 0.23 kg/day; weight at weaning (growing piglets; piglets, at weaning (start of experiment)): 7.7 kg; Incidence of diarrhoea: no diarrhoea ([1]; First week post-weaning): 81.2%; Incidence of diarrhoea: past (paste-like) diarrhoea ([1]; First week post-weaning): 17.6%; Incidence of diarrhoea: watery diarrhoea ([1]; First week post-weaning): 1.2%; Incidence of diarrhoea: past (paste-like) diarrhoea ([1]; Second week post-weaning): 9.5%; Incidence of diarrhoea: watery diarrhoea ([1]; Second week post-weaning): 0.2%; Incidence of diarrhoea: no diarrhoea ([1]; Second week post-weaning, p < 0.1): 90.3%; Incidence of diarrhoea: past (paste-like) diarrhoea ([1]; Third week post-weaning): 9.0%; Incidence of diarrhoea: watery diarrhoea ([1]; Third week post-weaning): 0.5%; Incidence of diarrhoea: no diarrhoea ([1]; Third week post-weaning, p < 0.01): 90.5%; number of animals required treatment ([1]; veterinary treatment during the study): 23
